Experimental data published in BindingDB's records for doi:10.1021/jm030121k (Boehringer Ingelheim Pharmaceuticals, 2003).

Molecular target: Mitogen-activated protein kinase 14 (Mus musculus, UniProt P47811)
Assay: UV-Thermal Melt
Experimental: UV thermal melt experiments were carried out in a quartz cuvette loaded with sample containing enzyme and each test compound using a spectrophotometer. For each measurement, absorbance data at 230 nm was collected as the temperature was scanned from 25 to 80 C at a ramp rate of 0.2 C /min. The melting temperature (Tm) for each sample was calculated as the maximum deflection point of the first derivative of the melting transition.

Chain of Mitogen-activated protein kinase 14 (P47811 whole entry): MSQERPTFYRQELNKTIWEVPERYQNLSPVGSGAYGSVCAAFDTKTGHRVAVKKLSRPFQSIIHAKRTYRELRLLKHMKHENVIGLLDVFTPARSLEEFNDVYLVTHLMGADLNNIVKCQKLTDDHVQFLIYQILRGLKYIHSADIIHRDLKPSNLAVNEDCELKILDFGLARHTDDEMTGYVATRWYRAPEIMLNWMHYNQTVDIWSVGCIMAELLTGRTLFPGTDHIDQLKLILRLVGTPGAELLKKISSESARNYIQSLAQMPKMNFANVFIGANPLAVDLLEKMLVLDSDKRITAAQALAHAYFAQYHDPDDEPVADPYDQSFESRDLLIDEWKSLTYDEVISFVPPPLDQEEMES

Kd: 0.011 µM
Structure (SMILES): Cc1ccc(-n2nc(C(C)(C)C)cc2NC(=O)Nc2cccc3ccccc23)cc1 [BIRB-796 Analog 4]
